Results: patent US6214805A, “RNase L activators and antisense oligonucleotides effective to treat RSV infections” (priority 1997, dated 2001)

Key:
[1] = system: RSV Long (A); experiment: Neutral red uptake assay in HEp-2 cells, RSV strain Long; assay type: cell-based, Respiratory syncytial virus; settings: Table 12, neutral red
Method: This assay was performed by a modified method as described by Cavenaugh et al. (Cavenaugh et al. 1990, Invest. New Drugs 8:347-354). Briefly, medium was removed from each well of a plate scored for CPE from a CPE inhibition assay, 0.2 ml of neutral red (0.034% in PSS) was added to each of the wells of that plate and the plate incubated for 2 hr at 37° C. in the dark. The neutral red solution was removed from the wells and the wells rinsed twice with PBS (pH 7.4). Equal volumes (0.1 ml) of absolute ethanol and Sorenson citrate buffer (0.1 M sodium citrate, 0.1 M HCI, pH 4.2) were mixed together and added to each well. Plates were incubated in the dark for 30 min. at room temperature to solubilize the dye. The plates were then gently mixed on a 96-well plate adapted vortexer for 1 min. Absorbances at 540 nm and 450 nm were read with a microplate reader (Bio-Tek EL 1309; Bio-Tek Instruments, Inc. Winooski, Vt.). Absorbance values were expressed as percents of untreated controls and EC50 and IC50 values were calculated by regression analysis.
(§1) In this series, MP351 was added once a day for two days with fresh medium

[2] = system: RSV strain A2; experiment: CPE inhibition assay in HEp-2 cells; assay type: cell-based, Respiratory syncytial virus; settings: for EC50: human respiratory syncytial virus
Method: The CPE inhibition assay used in this study was performed as described by Sidwell and Huffman (Sidwell et al., 1971, Appl. Microbiol. 22:7979-7801) with slight modifications. Varying concentrations of test compounds were added to each plate containing near confluent cell monolayers (1×10^5 cells/well) followed immediately by the addition of virus at a multiplicity of infection (MOI)=0.01, and then incubated at 37° C. […] All compounds were assayed for virus inhibition in quadruplicate and for cytotoxicity in duplicate. For each compound, two wells were set aside as uninfected, untreated cell controls per test and four wells per test received virus only and represented controls for virus replication. […] For all CPE-based assays, the 50% effective concentration (EC50) was calculated by regression analysis using the means of the CPE ratings at each concentration of compound.

[3] = system: RSV strain A2; experiment: Virus yield reduction assay in HEp-2 cells; assay type: cell-based, Respiratory syncytial virus; settings: human respiratory syncytial virus, compound added twice daily
Method: EC50 & EC90 : concentration required to reduce virus (RSV strain
Both compounds were added to the cells twice daily.

[4] = system: Hep-2 Cells; experiment: Cytotoxicity by morphological changes in HEp-2 cells (CPE inhibition assay); assay type: cell-based, human; settings: Homo sapiens
Method: Embryonic African green monkey kidney cells (MA-104) were obtained from BioWhittaker, Inc. (Walkersville, Md.). HEp-2 cells were propagated from a human epidermoid carcinoma of the larynx (American Type Culture Collection, ATCC; Rockville, Md.). The cells were grown in minimal essential medium. (MEM, Gibco-BRL, Gaitherburg, Md.) supplemented with 0.1% NaHCO3 and 10% fetal bovine serum (FBS, Hyclone Laboratories, Logan Utah.). When performing antiviral assays, serum was reduced to 2% and 50 μg/ml gentamicin (Sigma Chemical Company, St. Louis, Mo.) was added to the medium.
Morphological changes due to compound cytotoxicity were graded on a scale of 0-5; grade 5 was defined as 100% cytotoxicity. The 50% cytotoxic dose (IC50 was calculated by regression analysis. A selective index (S.I.) was calculated for each compound [S.I.=(IC50)/(EC50 ].

[5] = system: RSV CH18537 (B); experiment: CPE inhibition assay in HEp-2 cells, RSV strain CH18537; assay type: cell-based, Respiratory syncytial virus; settings: Table 12, CPE
Method: The CPE inhibition assay used in this study was performed as described by Sidwell and Huffman (Sidwell et al., 1971, Appl. Microbiol. 22:7979-7801) with slight modifications. Varying concentrations of test compounds were added to each plate containing near confluent cell monolayers (1×10^5 cells/well) followed immediately by the addition of virus at a multiplicity of infection (MOI)=0.01, and then incubated at 37° C. On the following day, the medium from each plate was removed and fresh compound added. The assay was stopped at the end of the sixth day when the virus cytopathic effect in the virus infected, untreated control cells affected all cells. All compounds were assayed for virus inhibition in quadruplicate and for cytotoxicity in duplicate. For each compound, two wells were set aside as uninfected, untreated cell controls per test and four wells per test received virus only and represented controls for virus replication. […] For all CPE-based assays, the 50% effective concentration (EC50) was calculated by regression analysis using the means of the CPE ratings at each concentration of compound.
as §1

[6] = system: Hep-2 Cells; experiment: Cytotoxicity to Hep-2 cells (visual and dye uptake, rapidly dividing cells); assay type: cell-based, human; settings: Homo sapiens
From the text: A comparison of the efficacies of spA4 -antiRSV3'3'T/(8281-8299) treatment and conventional ribarvirin treatment can be obtained by determining the RSV-inhibitory concentration and the cytotoxic concentration of each compound. Cultures of the human laryngeal carcinoma cell line HEp-2 and the […] renal cell line MA-104 were established and infected with an MOI=0.005. Cultures were fed twice daily. Treatment with either ribavirin or spA4 -antiRSV3'3'T/(8281-8299) was begun simultaneously with infection and continued for four days. Treatment was then withdrawn and the test read on day 5. The effects of treatment on RSV infection were reported as 1) an EC50, the concentration at which there was a 50% reduction in the observable cytopathic effects of infection and 2) an EC90, the concentration at which there was a 90% reduction in viral production. […] Therapeutic efficacy is estimated by the Selectivity Index, which is the ratio of IC50 /EC50.
IC50 50% inhibitory concentration for cytotoxicity to cells (visual

[7] = in vivo; cited from earlier work
[8] = human respiratory syncytial virus, 48 h, once a day for two days
[9] = HEp-2, 24 h, Table 10, CPE, q.d. 1 day (added along with virus, never replenished), HEp2

## NC(=O)c1ncn([C@@H]2O[C@H](CO)[C@@H](O)[C@H]2O)n1 [Ribavirin]
[1]
  SI: 23
[1]; [8]
  EC50: 12 µM
[2]; Table 10, CPE, B.I.D. 2 days, HEp2
  SI: > 57
[2]; Table 10, CPE, B.I.D. 3 days, HEp2
  SI: > 180
[2]; Table 10, CPE, B.I.D. 4 days, HEp2
  SI: 57
[2]; Table 10, CPE, q.d. 1 day (added along with virus, never replenished), HEp2
  SI: 57
[2]; Table 10, CPE, q.d. 3 days, HEp2
  SI: > 57
[2]; Table 10, CPE, q.d. 4 days, HEp2
  SI: > 57
[2]; Table 13, CPE, q.d., Day 0, HEp-2
  SI: 30
[2]; Table 13, CPE, q.d., Day 1, HEp-2
  SI: 8
[2]; Table 13, CPE, q.d., Day 2, HEp-2
  SI: 80
[2]; HEp-2, 0 h, Table 13, CPE, q.d., Day 0 (added immediately after virus exposure), HEp-2
  EC50: 12 µM
[2]; [9]
  EC50: 4 µM
[2]; HEp-2, 24 h, Table 13, CPE, q.d., fresh compound up to Day 1 post infection, HEp-2
  EC50: 4 µM
[2]; HEp-2, 48 h, Table 10, CPE, B.I.D. 2 days, HEp2, read-out: EC50
  EC50: < 4 µM
[2]; HEp-2, 48 h, Table 13, CPE, q.d., fresh compound up to Day 2 post infection, HEp-2, read-out: EC50
  EC50: 4 µM
[2]; HEp-2, 72 h, Table 10, CPE, B.I.D. 3 days, HEp2, read-out: EC50
  EC50: < 4 µM
[2]; HEp-2, 72 h, Table 10, CPE, q.d. 3 days, HEp2, read-out: EC50
  EC50: < 4 µM
[2]; HEp-2, 96 h, Table 10, CPE, B.I.D. 4 days, HEp2, read-out: EC50
  EC50: 4 µM
[2]; HEp-2, 96 h, Table 10, CPE, q.d. 4 days, HEp2, read-out: EC50
  EC50: < 4 µM
[3]; virus yield reduced by 50%
  EC50: 40 µM
[3]; virus yield reduced by 90%
  EC90: 80 µM
[4]; HEp-2, 0 h, Table 13, CPE, q.d., Day 0, HEp-2
  IC50: 240 µM
[4]; [9]
  IC50: 230 µM
[4]; HEp-2, 24 h, Table 13, CPE, q.d., Day 1, HEp-2
  IC50: 320 µM
[4]; HEp-2, 48 h, Table 10, CPE, B.I.D. 2 days, HEp2
  IC50: 230 µM
[4]; HEp-2, 48 h, Table 13, CPE, q.d., Day 2, HEp-2
  IC50: 320 µM
[4]; HEp-2, 72 h, Table 10, CPE, B.I.D. 3 days, HEp2
  IC50: 720 µM
[4]; HEp-2, 72 h, Table 10, CPE, q.d. 3 days, HEp2
  IC50: 230 µM
[4]; HEp-2, 96 h, Table 10, CPE, B.I.D. 4 days, HEp2
  IC50: 230 µM
[4]; HEp-2, 96 h, Table 10, CPE, q.d. 4 days, HEp2
  IC50: 230 µM
[4]; HEp-2, Table 12, CPE, test with 393 (clinical isolate), HEp-2
  IC50: 96 µM
[4]; HEp-2, Table 12, CPE, test with CH18537 (B), HEp-2
  IC50: 208 µM
[4]; HEp-2, Table 12, CPE, test with Long (A), HEp-2
  IC50: 205 µM
[5]
  SI: 52
[5]; [8]
  EC50: 4 µM
[6]
  IC50: 41 µM
[7]
  half-life: 40 days
